By melting point is commonly meant the temperature, or range, at which the solid turns liquid.

Consider three compounds from patent publication US20120148682A1.

In one series the test system is Phytophthora infestans. The series is classed as in vivo. The settings on record: 50 ppm hydrazone with 50 μM CuCl2.2H2O, applied 24 h before inoculation, tomato plants, 7 days after inoculation.
Series [1] has as its system Leptosphaeria nodorum (LEPTNO). Briefly: In vitro fungitoxicity (growth inhibition) in copper-minus and copper-plus medium. The series is classed as cell-based. The method, then: Trace elements (minus CuSO4), and vitamins described by Coursen and […] were added from concentrated stock solutions and the entire medium was sterilized by filtration. […] […] was grown on potato dextrose agar in 9 cm diameter petri dishes for 7 days. Sterile deionized water (20 mL) was added to a culture plate and spores suspended by scraping the surface gently with a sterile plastic loop. The resulting suspension was filtered through a double layer of sterile cheesecloth. Filtered spore suspension (5 mL) was centrifuged in a bench centrifuge at 2000 rpm for 2 min. […] Microtiter plates were inoculated with 100 μL of this spore suspension and the plates incubated at 25° C. for 72 h before assessing fungal growth by measuring light scattering in a NepheloStar plate reader. Growth inhibition was determined by comparing growth in the presence of test compound with growth in control wells lacking test compound. Results for growth inhibition by test compounds in copper-plus medium (“% Inhn. Plus Copper Observed”) were compared with predicted values (“% Inhn. Plus Copper Predicted”) that were calculated using the formula set forth by S. R. […] Minus Copper Observed”) and the inhibition attributed to copper chloride alone, as determined by comparing growth in copper-minus and copper-plus media without any test compound across experiments. Results illustrate that hydrazones and copper produce a synergistic fungitoxic effect towards […].

For series [2], the system named is Septoria tritici isolate USA-184. Briefly: In vitro fungitoxicity in copper-minus and copper-plus medium. The format is cell-based. The settings on record: CuCl2 1 μM, without test compound. Here is the method:
Test compounds were dissolved in dimethylsulfoxide (DMSO) at 10 μg/mL and 1 μL aliquots were added to two wells of flat-bottomed 96-well microtiter plates. […] Control wells, included for each medium, received 1 uL DMSO and 100 μL of medium. Septoria tritici isolate USA-184 was grown on potato dextrose agar at 18° C. under black lights for 3 days. A loopful of spores was transferred from the culture to a 15 mL tube containing 5 mL of sterile Chelex-treated water. The spores were centrifuged at 2000 rpm for 2 min, resuspended in 10 mL water, and centrifuged again. […] Microtiter plate wells containing test compound of DMSO (control) as described above were inoculated with 100 μL of this spore suspension and the plates incubated at 25° C. for 90 h before assessing fungal growth by measuring light scattering in a NepheloStar plate reader. Growth inhibition was determined by comparing growth in the presence of test compound with growth in control wells lacking test compound. […] Plus Copper Observed”) were compared with predicted results (“% Inhn. Plus Copper Predicted”) that were calculated using the formula set forth by S. R. […] Minus Copper Observed”) and the inhibition attributed to copper chloride alone, as determined by comparing growth in copper-minus and copper-plus media without any test compound. […]

For the next series, the system named is Ustilago maydis. The series is described as above. The format is cell-based. Particulars: CuCl2 10 μM, without test compound. Here is the method:
Test compounds were dissolved in dimethylsulfoxide (DMSO) at 200 μg/mL and 1 μL aliquots were added to two wells of flat-bottomed 96-well microtiter plates. […] Control wells, included for each medium, received 1 uL DMSO and 100 μL of medium. Ustilago maydis was grown in 50 mL potato dextrose broth with shaking at 25° C. for 24 h. A 10 mL aliquot of the culture was centrifuged at 2000 rpm for 2 min, resuspended in 10 mL of sterile Chelex 100-treated water, and centrifuged again. […] Microtiter plate wells containing test compound of DMSO (control) as described above were inoculated with 100 μL of this spore suspension and the plates incubated at 25° C. for 48 h before assessing fungal growth by measuring light scattering in a NepheloStar plate reader. Growth inhibition was determined by comparing growth in the presence of test compound with growth in control wells lacking test compound. […] Plus Copper Observed”) were compared with predicted results (“% Inhn. Plus Copper Predicted”) that were calculated using the formula set forth by S. R. […] Minus Copper Observed”) and the inhibition attributed to copper chloride alone, as determined by comparing growth in copper-minus and copper-plus media without any test compound. Results illustrate that hydrazones and copper produce a synergistic fungitoxic effect towards Ustilago maydis.

The next series relates to Phytophthora capsici. Briefly: In vitro fungitoxicity in copper-minus AS and copper-plus AS medium. The settings on record: CuCl2 50 uM, without test compound, across experiments. The series is classed as cell-based. The method, then:
Plates were inoculated with 7-mm plugs from a 1-week old culture, incubated at 25° C. in the dark for 3 days, and then placed under fluorescent lights for 4 days to induce sporulation. Zoospore release from sporangia was induced by adding 15 mL of sterile deionized water (which had been treated with Chelex 100 resin using 0.5 g resin per liter of water by stirring at room temperature for 1 h) to each plate, and incubating for 10 min at 25° C. followed by 20 min at 4° C. The plates were returned to 25° C. for 10 min and the aqueous suspension of released zoospores was recovered. The zoospore suspension was adjusted to 5×10^4 spores/mL by dilution into Chelex 100-treated water. Microtiter plates were inoculated with 100 μL of spore suspension and incubated at 25° C. for 48 h before assessing fungal growth by measuring light scattering in a NepheloStar plate reader. Growth inhibition was determined by comparing growth in the presence of test compound with growth in control wells lacking test compound. Results for growth inhibition by test compounds in copper-plus AS medium (“% Inhn. Plus Copper Observed”) were compared with predicted values (“% Inhn. Plus Copper Predicted”) that were calculated using the formula set forth by S. R. […]

Series [3] relates to Staphylococcus aureus, Escherichia coli, Aspergillus niger and A. flavus. Particulars: Proceedings of the National Academy of Sciences, India 1991; cited from earlier work.

In turn, `O=C(N/N=C/c1cccc(C(F)(F)F)c1O)c1ccc(C(F)(F)F)cc1O` [Compound 42] gave a melting point of 248 to 253 °C. For the same compound, in the series on Phytophthora infestans, the “TLB % Control” value is 100.0%. The “LEPTNO % Inhn. Plus Copper Observed” value in series [1] (0.05 μg/mL compound, copper-plus medium (CuCl2, 10 μM), 72 h) was determined as 98.4%. For the same compound, the inhibition of growth at 0.05 µg/mL in series [1] (Parastagonospora nodorum, 0.05 μg/mL compound, copper-minus medium, 72 h, read-out: LEPTNO % Inhn. Minus Copper Observed) was found to be 8.8%.
Take `[Cl][Cu][Cl]` [CuCl2, copper chloride]: the entries for the “% Inhibition copper chloride alone” value in series [2] and in series [2] (listed as copper chloride) were 0% and “no effect on growth”, respectively. Besides, the “% Inhn. copper chloride alone” value with Ustilago maydis is reported as 11.9%. Besides, the “LEPTNO % Inhn. copper chloride alone” value in series [1] (CuCl2 10 μM, without test compound, across experiments) was found to be 7.1 ± 6.0%. Further, the “% Inhn copper chloride alone” value with Phytophthora capsici was 4.5 ± 7.9%.
With `O=C(NN=Cc1ccccc1O)c1ccccc1O` [o-hydroxybenzaldehyde-N-salicyloylhydrazone], the antimicrobial activity entry in series [3] is recorded as “Antimicrobial activity has been reported”.
